The test concerns endogenous cellular STAT1 (phosphorylated at Tyr701) in NCI-H1373 cells. As to the kind of experiment: Phospho-STAT1 (Tyr701) LANCE Ultra TR-FRET Detection Assay. The class given is cell-based. Conditions: Homo sapiens, NCI-H1373, 48 h, phospho-STAT1 (Tyr701) induction, read-out: NH1373 pSTAT1 EC50.

The structures appear in SMILES notation. pEC50: −log10 of the molar value.

In patent US12459922B2 (Gilead Sciences, Inc., priority 2022, dated 2025) one finds EC50 data, which are given here for 25 compounds.

In the case of `C[C@@H](/C=C/Cn1ccc2cc(-c3ncc(C(F)(F)F)cn3)c(F)c(F)c2c1=O)Nc1cn[nH]c(=O)c1C(F)(F)F` [Example 133, (S,E)-7,8-difluoro-2-(4-((6-oxo-5-(trifluoromethyl)-1,6-dihydropyridazin-4-yl)amino)pent-2-en-1-yl)-6-(5-(trifluoromethyl)pyrimidin-2-yl)isoquinolin-1(2H)-one], the pEC50 was 8.55.

As for `COc1cnc(-c2cc3ccn(CCC[C@@H]4CCCN4c4cn[nH]c(=O)c4C(F)(F)F)c(=O)c3cc2F)nc1N` [Example 122, (S)-6-(4-amino-5-methoxypyrimidin-2-yl)-7-fluoro-2-(3-(1-(6-oxo-5-(trifluoromethyl)-1,6-dihydropyridazin-4-yl)pyrrolidin-2-yl)propyl)isoquinolin-1(2H)-one], the pEC50 was 8.09.

With `COc1cnc(-c2cc3ncn(CCC[C@H](C)Nc4cn[nH]c(=O)c4C(F)(F)F)c(=O)c3cc2F)nc1NC1CC1` [Example 220, (S)-7-(4-(cyclopropylamino)-5-methoxypyrimidin-2-yl)-6-fluoro-3-(4-((6-oxo-5-(trifluoromethyl)-1,6-dihydropyridazin-4-yl)amino)pentyl)quinazolin-4(3H)-one], the pEC50 is 6.71.

As for `Cn1nc(-c2cc3ccn(C[C@@H]4CCC[C@H](Nc5cn[nH]c(=O)c5C(F)(F)F)C4)c(=O)c3cc2F)cc1C(F)(F)F` [Example 491, 7-fluoro-6-[1-methyl-5-(trifluoromethyl)pyrazol-3-yl]-2-[[(1R,3S)-3-[[6-oxo-5-(trifluoromethyl)-1H-pyridazin-4-yl]amino]cyclohexyl]methyl]isoquinolin-1-one], the pEC50 was 7.30.

On to `O=c1[nH]ncc(N[C@H](CCCn2ccc3cc(-c4ncc(C(F)(F)F)s4)c(F)cc3c2=O)COC(F)F)c1C(F)(F)F` [Example 396, (R)-2-(5-(difluoromethoxy)-4-((6-oxo-5-(trifluoromethyl)-1,6-dihydropyridazin-4-yl)amino)pentyl)-7-fluoro-6-(5-(trifluoromethyl)thiazol-2-yl)isoquinolin-1(2H)-one], for which the negative-log EC50 (pEC50) was 7.31.

For `CCNc1nc(-c2cc3ccn(CCC[C@H](C)Nc4cn[nH]c(=O)c4C(F)(F)F)c(=O)c3cc2F)ncc1OC` [Example 215, (S)-6-(4-(ethylamino)-5-methoxypyrimidin-2-yl)-7-fluoro-2-(4-((6-oxo-5-(trifluoromethyl)-1,6-dihydropyridazin-4-yl)amino)pentyl)isoquinolin-1(2H)-one], the pEC50 is 7.44.

As to `Nc1nc(-c2cc3ncn(CCC[C@@H](Nc4cn[nH]c(=O)c4C(F)(F)F)C4CC4)c(=O)c3cc2F)ncc1OC(F)F` [Example 472, 7-[4-amino-5-(difluoromethoxy)pyrimidin-2-yl]-3-[(4R)-4-cyclopropyl-4-[[6-oxo-5-(trifluoromethyl)-1H-pyridazin-4-yl]amino]butyl]-6-fluoro-quinazolin-4-one], the pEC50 is 7.29.

Regarding `O=c1[nH]ncc(N[C@H](CCCn2cnc3cc(-c4ncc(C(F)(F)F)cn4)c(F)cc3c2=O)COC(F)F)c1C(F)(F)F` [Example 382, (R)-3-(5-(difluoromethoxy)-4-((6-oxo-5-(trifluoromethyl)-1,6-dihydropyridazin-4-yl)amino)pentyl)-6-fluoro-7-(5-(trifluoromethyl)pyrimidin-2-yl)quinazolin-4(3H)-one], the pEC50 is 8.66.

For `CNc1nc(-c2cc3ncn(CCC[C@H](C)Nc4cn[nH]c(=O)c4C(F)(F)F)c(=O)c3cc2F)ncc1C(F)(F)F` [Example 115, 6-fluoro-7-[4-(methylamino)-5-(trifluoromethyl)pyrimidin-2-yl]-3-[(4S)-4-[[6-oxo-5-(trifluoromethyl)-1H-pyridazin-4-yl]amino]pentyl]quinazolin-4-one], the pEC50 is 8.47.

As for `C[C@@H](CCCn1ccc2cc(-c3ncc(N)cn3)c(F)cc2c1=O)Nc1cn[nH]c(=O)c1C(F)(F)F` [Example 199, (S)-6-(5-aminopyrimidin-2-yl)-7-fluoro-2-(4-((6-oxo-5-(trifluoromethyl)-1,6-dihydropyridazin-4-yl)amino)pentyl)isoquinolin-1(2H)-one], the pEC50 was 6.50.

For the compound `O=c1[nH]ncc(N[C@H]2CCC[C@@H](Cn3ccc4cc(-c5nc6ccccn6n5)c(F)cc4c3=O)C2)c1C(F)(F)F` [Example 488, 6-([1,2,4]triazolo[1,5-a]pyridin-2-yl)-7-fluoro-2-(((1R,3S)-3-((6-oxo-5-(trifluoromethyl)-1,6-dihydropyridazin-4-yl)amino)cyclohexyl)methyl)isoquinolin-1(2H)-one], the pEC50 was 9.29.

Turning to `CC[C@@H](CCCn1cnc2cc(-c3ncc(Cl)cn3)c(F)cc2c1=O)Nc1cn[nH]c(=O)c1C(F)(F)F` [Example 157, 7-(5-chloropyrimidin-2-yl)-6-fluoro-3-[(4S)-4-[[6-oxo-5-(trifluoromethyl)-1H-pyridazin-4-yl]amino]hexyl]quinazolin-4-one], the pEC50 was 7.64.

Turning to `C[C@@H](CCCn1ccc2cc(-c3nc(N4CCOCC4)c4sccc4n3)c(F)cc2c1=O)Nc1cn[nH]c(=O)c1C(F)(F)F` [Example 298, (S)-7-fluoro-6-(4-morpholinothieno[3,2-d]pyrimidin-2-yl)-2-(4-((6-oxo-5-(trifluoromethyl)-1,6-dihydropyridazin-4-yl)amino)pentyl)isoquinolin-1(2H)-one], the pEC50 is 7.50.

Take `COc1cnc(-c2cc3ccn(CCC[C@H](C)Nc4cn[nH]c(=O)c4C(F)(F)F)c(=O)c3c(F)c2F)nc1N` [Example 109, 6-(4-amino-5-methoxy-pyrimidin-2-yl)-7,8-difluoro-2-[(4S)-4-[[6-oxo-5-(trifluoromethyl)-1H-pyridazin-4-yl]amino]pentyl]isoquinolin-1-one]: the pEC50 was 8.07.

Consider `O=c1[nH]ncc(N[C@H]2CCC[C@@H](Cn3ccc4cc(-c5cnc(OC(F)F)cn5)c(F)cc4c3=O)C2)c1C(F)(F)F` [Example 259, 6-(5-(difluoromethoxy)pyrazin-2-yl)-7-fluoro-2-(((1R,3S)-3-((6-oxo-5-(trifluoromethyl)-1,6-dihydropyridazin-4-yl)amino)cyclohexyl)methyl)isoquinolin-1(2H)-one], for which the pEC50 was 6.74.

With `O=c1[nH]ncc(N[C@H](CCCn2ccc3cc(-c4ccc(C(F)(F)F)cn4)c(F)cc3c2=O)COC(F)F)c1C(F)(F)F` [Example 399, (R)-2-(5-(difluoromethoxy)-4-((6-oxo-5-(trifluoromethyl)-1,6-dihydropyridazin-4-yl)amino)pentyl)-7-fluoro-6-(5-(trifluoromethyl)pyridin-2-yl)isoquinolin-1(2H)-one], the pEC50 is 8.53.

On to `CC[C@@H](CCCn1ccc2cc(-c3cnc(C(F)(F)F)c(N)n3)c(F)cc2c1=O)Nc1cn[nH]c(=O)c1C(F)(F)F` [Example 339, (S)-6-(6-amino-5-(trifluoromethyl)pyrazin-2-yl)-7-fluoro-2-(4-((6-oxo-5-(trifluoromethyl)-1,6-dihydropyridazin-4-yl)amino)hexyl)isoquinolin-1(2H)-one], for which the pEC50 is 7.76.

In the case of `[2H]C([2H])([2H])OC[C@@H](CCCn1ccc2cc(-c3ncc(C(F)(F)F)cn3)c(F)cc2c1=O)Nc1cn[nH]c(=O)c1C(F)(F)F` [Example 181, (R)-7-fluoro-2-(5-(methoxy-d3)-4-((6-oxo-5-(trifluoromethyl)-1,6-dihydropyridazin-4-yl)amino)pentyl)-6-(5-(trifluoromethyl)pyrimidin-2-yl)isoquinolin-1(2H)-one], the pEC50 is 7.85.

`Nc1nc(-c2cc3ccn(CCC[C@H](COC(F)F)Nc4cn[nH]c(=O)c4C(F)(F)F)c(=O)c3c(F)c2F)ncc1C(F)(F)F` [Example 389, (R)-6-(4-amino-5-(trifluoromethyl)pyrimidin-2-yl)-2-(5-(difluoromethoxy)-4-((6-oxo-5-(trifluoromethyl)-1,6-dihydropyridazin-4-yl)amino)pentyl)-7,8-difluoroisoquinolin-1(2H)-one]: the pEC50 was 8.29.

Turning to `Cc1nc(-c2cc3ccn(CCC[C@H](C)Nc4cn[nH]c(=O)c4C(F)(F)F)c(=O)c3cc2F)nc(N)c1C(F)(F)F` [Example 327, (S)-6-(4-amino-6-methyl-5-(trifluoromethyl)pyrimidin-2-yl)-7-fluoro-2-(4-((6-oxo-5-(trifluoromethyl)-1,6-dihydropyridazin-4-yl)amino)pentyl)isoquinolin-1(2H)-one], the pEC50 is 8.52.

`C[C@@H](CCCn1ccc2cc(-c3ncc(C(F)F)c(N)n3)c(F)c(F)c2c1=O)Nc1cn[nH]c(=O)c1C(F)(F)F` [Example 113, 6-[4-amino-5-(difluoromethyl)pyrimidin-2-yl]-7,8-difluoro-2-[(4S)-4-[[6-oxo-5-(trifluoromethyl)-1H-pyridazin-4-yl]amino]pentyl]isoquinolin-1-one]: the pEC50 was 8.16.

For `C[C@@H](CCCn1ccc2cc(-c3ccc(C#N)c(C(F)(F)F)n3)c(F)cc2c1=O)Nc1cn[nH]c(=O)c1C(F)(F)F` [Example 295, (S)-6-(7-fluoro-1-oxo-2-(4-((6-oxo-5-(trifluoromethyl)-1,6-dihydropyridazin-4-yl)amino)pentyl)-1,2-dihydroisoquinolin-6-yl)-2-(trifluoromethyl)nicotinonitrile], the pEC50 is 5.69.

On to `O=c1[nH]ncc(N[C@H](CCCn2ccc3cc(-c4cnc(N5CCNCC5)cn4)c(F)cc3c2=O)COC(F)F)c1C(F)(F)F` [Example 423, (R)-2-(5-(difluoromethoxy)-4-((6-oxo-5-(trifluoromethyl)-1,6-dihydropyridazin-4-yl)amino)pentyl)-7-fluoro-6-(5-(piperazin-1-yl)pyrazin-2-yl)isoquinolin-1(2H)-one], for which the pEC50 was 6.35.

In the case of `Nc1nc(-c2cc3ncn(CCC[C@H](COC(F)F)Nc4cn[nH]c(=O)c4C(F)(F)F)c(=O)c3cc2F)ccc1C(F)F` [Example 395, (R)-7-(6-amino-5-(difluoromethyl)pyridin-2-yl)-3-(5-(difluoromethoxy)-4-((6-oxo-5-(trifluoromethyl)-1,6-dihydropyridazin-4-yl)amino)pentyl)-6-fluoroquinazolin-4(3H)-one], the pEC50 was 7.52.

As for `COc1cnc(-c2cc3ncn(CCC[C@H](C)Nc4cn[nH]c(=O)c4C(F)(F)F)c(=O)c3cc2F)nc1N1CC(C#N)C1` [Example 209], the pEC50 was 7.38.
